For the experiment, the system named is epileptic patients. As to the kind of experiment: Clinical trial: seizure frequency in epileptic patients on valproate with added L-carnitine. The format is in vivo. The note with it: 45 patients treated only with valproate for at least six months, then valproate and L-carnitine for at least one year; compared with the pre-treatment period (valproate only). Pre-carnitine vs greater than 12 months p<0.001; start-6 months vs greater than 12 months p=0.0001; 6-12 months vs greater than 12 months p=0.0001. On the procedure:
Fortyfive patients, 20 females and 25 males, mean age 24.5±8.48 years, were included in the study.
Some patients had more than one seizure type.
All of the patients had been treated only with valproate for at least six months.
Subsequently, they were treated with both valproate and L-carnitine for at least one year.
At intervals L-carnitine activity was assessed on some parameters including seizure frequency, in comparison with the pre-treatment period (valproate only, no L-carnitine). The intervals selected for all the controls were: between the start to 6 months of L-carnitine therapy, […], and L-carnitine therapy greater than 12 months.
Parameter assessment was not carried out at prefixed dates but within the 0-6, 6-12 and greater than 12 month periods in order to evaluate the seizure frequency over a sufficiently extended time period.

We go through 1 molecule from patent publication EP0637449A1, “Use of L-carnitine or acyl L-carnitines and valproate for treating seizure disorders” (Sigma-Tau Industrie Farmaceutiche Riunite S.p.A., priority 1993, dated 1995).

For `C[N+](C)(C)C[C@H](O)CC(=O)[O-]` [L-carnitine], the seizure frequency entry is “decreased progressively and steadily”.
